Assay results: patent US6967215B2, “Tetrahydrocarbazoles, a process for the preparation of those compounds, and the use thereof” (Ciba Specialty Chemicals Corporation, priority 2000, dated 2005)

Tests used:
Assay in all cases: MIC, microtitre dilution test (growth by optical density at 620 nm)
Conditions in all cases: Table 4
[1] = tested on: Staphylococus aureus ATCC 9144; assay type: cell-based, Staphylococcus aureus
Protocol: All the test organisms are adjusted to an organism count of 1-5×10^6 CFU/ml using 0.85% sodium chloride solution. The test substances are pre-pipetted into microtitre plates in an amount of 8 μl per well. Pre-diluted organism suspensions are diluted 1:100 in CASO bouillon (bacteria and yeast) or Sabouraud 2% glucose bouillon (mould) and are added in an amount of 192 μl per well to the test substances. The test batches are incubated for 48 hours at 37° C. (bacteria and yeast) or for 5 days at 28° C. (mould). After incubation, the growth is evaluated by reference to the turbidity of the test batches (optical density) at 620 nm in a microplate reader. The minimum inhibitory concentration (MIC value) is the concentration of substance at which (compared with the growth of the control) an appreciable inhibition of growth (≦20% growth) of the test organisms is ascertained. One microtitre plate is used for each test organism and substance concentration. All the substances are tested in duplicate.

[2] = tested on: Staphylococcus hominis DMS 20328; assay type: cell-based
How it was run: (§1)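 Compounds in DMSO, 1:2 dilution series, against bacteria adjusted to 1-5×10^6 CFU/ml then diluted 1:100 in CASO bouillon; 48 h at 37° C. Growth read as turbidity at 620 nm. MIC is the concentration giving ≦20% growth versus control; duplicate testing.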

P. ovale ATCC 14521 = assay type: cell-based
[3] = tested on: Enterococcus hirae ATCC 10541; assay type: cell-based
How it was run: as §1

[4] = tested on: Staphylococcus epidermidis ATCC 12228; assay type: cell-based
How it was run: as §1

[5] = tested on: Staphylococcus aureus (methicillin-resistant) NCTC 12493; assay type: cell-based
How it was run: as §1

[6] = tested on: Actinomyces viscosus DSM 43329; assay type: cell-based
How it was run: as §1

[7] = tested on: Staphylococcus aureus (rifampicin-resistant) NCTC 10703; assay type: cell-based
How it was run: as §1

[8] = tested on: Streptococcus sobrinus DSM 20742; assay type: cell-based
How it was run: as §1

[9] = tested on: Staphylococcus aureus (penicillin-resistant) NCTC 10443; assay type: cell-based
How it was run: as §1

[10] = tested on: Porphyromonas gingivalis DSM 20709; assay type: cell-based
How it was run: as §1

[11] = tested on: Corynebacterium xerosis ATCC 373; assay type: cell-based
How it was run: as §1

[12] = tested on: Selenomonas artemidis ATCC 43528; assay type: cell-based
How it was run: as §1

[13] = tested on: Propionibacterium acnes ATCC 25746; assay type: cell-based
How it was run: as §1

[14] = tested on: Candida albicans ATCC 10259; assay type: cell-based
[15] = tested on: Staphylococcus aureus (methicillin-resistant) NCTC 11940; assay type: cell-based
How it was run: as §1

[16] = tested on: Micrococcus luteus ATCC 9341; assay type: cell-based
How it was run: as §1

[17] = tested on: Streptococcus mutans ATCC 25175; assay type: cell-based
How it was run: as §1

[18] = tested on: Trichophyton rubrum DSM 4167; assay type: cell-based
Protocol: (§2) Nutrient: Mycological slant agar for the pre-culture of moulds [table] The test substances are predissolved in dimethyl sulfoxide (DMSO) and tested in a dilution series of 1:2. Bacteria and yeast are cultured overnight in CASO bouillon, the mould is cultured overnight on mycological slant agar, and washed off with 10 ml of 0.85% sodium chloride solution (+0.1% TritonX-100). All the test organisms are adjusted to an organism count of 1-5×10^6 CFU/ml using 0.85% sodium chloride solution. The test substances are pre-pipetted into microtitre plates in an amount of 8 μl per well. Pre-diluted organism suspensions are diluted 1:100 in CASO bouillon (bacteria and yeast) or Sabouraud 2% glucose bouillon (mould) and are added in an amount of 192 μl per well to the test substances. The test batches are incubated for 48 hours at 37° C. (bacteria and yeast) or for 5 days at 28° C. (mould). After incubation, the growth is evaluated by reference to the turbidity of the test batches (optical density) at 620 nm in a microplate reader. The minimum inhibitory concentration (MIC value) is the concentration of substance at which (compared with the growth of the control) an appreciable inhibition of growth (≦20% growth) of the test organisms is ascertained. One microtitre plate is used for each test organism and substance concentration. All the substances are tested in duplicate.

[19] = tested on: Aspergillus niger ATCC 6175; assay type: cell-based
Protocol: as §2

[20] = tested on: Trichoderma longibrachiatum DSM 768; assay type: cell-based
Protocol: as §2

[21] = tested on: Epidermophyton floccosum DSM 10709; assay type: cell-based
Protocol: as §2

[22] = tested on: Tr. mentagrophytes ATCC 9533; assay type: cell-based
Protocol: as §2

Compound: O=C1NC(=O)C2C1c1[nH]c3ccc(Br)cc3c1C1CCCCCC12 (centres unmarked) [compound 32]
- MIC Staphylococus aureus ATCC 9144 [1]: 5.0 ppm
- MIC Staphylococcus hominis DSM 20328 [2]: 5.0 ppm
- MIC P. ovale ATCC 14521 (P. ovale ATCC 14521): >10 ppm
- MIC Enterococcus hirae ATCC 10541 [3]: >10 ppm
- MIC S. epidermidis ATCC 12228 [4]: 10 ppm
- MIC Staphylococcus aureus (methicillin-resistant) NCTC 12493 [5]: 5.0 ppm
- MIC Actinomyces viscosus DSM 43329 [6]: 6.25 ppm
- MIC Staphylococcus aureus (rifampicin-resistant) NCTC 10703 [7]: 5.0 ppm
- MIC Streptococcus sobrinus DSM 20742 [8]: 6.25 ppm
- MIC Staphylococcus aureus (penicillin-resistant) NCTC 10443 [9]: 5.0 ppm
- MIC Porphyromonas gingivalis DSM 20709 [10]: 3.125 ppm
- MIC Corynebacterium xerosis ATCC 373 [11]: 5.0 ppm
- MIC Selenomonas artemidis ATCC 43528 [12]: 50.0 ppm
- MIC Propionibacterium acnes ATCC 25746 [13]: 6.25 ppm
- MIC Candida albicans ATCC 10259 [14]: >10 ppm
- MIC Staphylococcus aureus (methicillin-resistant) NCTC 11940 [15]: 5.0 ppm
- MIC Micrococcus luteus ATCC 9341 [16]: 5.0 ppm
- MIC Streptococcus mutans ATCC 25175 [17]: 5.0 ppm
- MIC Trichophyton rubrum DSM 4167 [18]: 10 ppm
- MIC Aspergillus niger ATCC 6175 [19]: >10 ppm
- MIC Trichoderma longibrachiatum DSM 768 [20]: >10 ppm
- MIC Epidermophyton floccosum DSM 10709 [21]: 5.0 ppm
- MIC Tr. mentagrophytes ATCC 9533 [22]: 10 ppm
